Laboratory results reported in US8686155B2, “Aurora kinase modulators and method of use” (Amgen Inc., priority 2006, dated 2014).
Read-outs that look alike come from different tables or passages of the source.

Columns and labels:
[1] = test system: phosphorylation of Histone H3 in HeLa cells; assay: HeLa cell 1-hour phospho-histone assay; assay type: cell-based; settings: Homo sapiens, % of cells pHH3 positive, unit inferred, read-out: inhibitory activity (EC50) in the phospho-histone H3 assay
Method: HeLa Cell 1-Hour Phospho-Histone Assay
The purpose of this assay is to test the inhibitory effect of Aurora compounds with respect to phosphorylation of Histone H3 in the cellular context. HeLa cells (9×10^4/well) are plated in black 96-well flat-bottom tissue culture plates and incubated for 40 hours prior to compound addition. Compounds are serially diluted in DMSO, followed by dilution into MEM containing 10 mM HEPES; 10 ul/well of diluted compounds are added to cells (0.5% DMSO final). Cells are incubated for 1 hour at 37° C. in 5% CO2. Cells are then fixed with 3.7% formaldehyde for 10 minutes, washed with wash buffer (1% goat serum and 0.1% Tween 20 in PBS), then permeabilized with 0.5% Triton X in PBS for 15 minutes. After washing with wash buffer, cells are incubated with primary antibody (Upstate #06-507 anti-phospho-histone (Ser 10) antibody (pHH3) for 1 hour at 10 ug/ml. After 2 washes with wash buffer, cells are incubated with secondary antibody (Molecular Probes #A11034 goat anti-rabbit Alexa-488 for 1 hour at 1 ug/ml+Hoechst 33342 nuclear dye at 1 ug/ml (Molecular Probes). Cells are washed 2 times with wash buffer, and buffer replaced with PBS. Plates are scanned on the Cellomics Array Scan (6 fields, ˜2000 cells/well) and % of cells that are pHH3 positive were calculated using the Cellomics algorithm.

AuroraA-TPX2 = target: T1, AuroraA-TPX2 (Homo sapiens, UniProt O14965); assay: AuroraA-TPX2 Homogeneous Time Resolved Fluorescent (HTRF) kinase assay; assay type: biochemical
T1 construct: 20 μL of AuroraA-TPX2 KD GST; GST
T1 sequence (O14965 133-383 limits assumed): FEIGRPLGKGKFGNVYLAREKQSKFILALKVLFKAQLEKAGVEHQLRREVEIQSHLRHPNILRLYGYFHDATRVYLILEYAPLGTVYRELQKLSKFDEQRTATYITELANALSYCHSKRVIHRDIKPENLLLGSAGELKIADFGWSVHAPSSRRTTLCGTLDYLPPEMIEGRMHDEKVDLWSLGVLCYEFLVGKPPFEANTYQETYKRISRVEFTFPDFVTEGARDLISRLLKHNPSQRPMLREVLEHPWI
T1 sequence (Q9ULW0 1-43 partner limits assumed): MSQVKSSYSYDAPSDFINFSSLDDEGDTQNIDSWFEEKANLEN
Method: AuroraA-TPX2-Homogeneous Time Resolved Fluorescent (HTRF) Kinase Assay
The Aurora-A HTRF assay begins with Aurora-A in the presence of ATP phosphorylating the biotinylated peptide PLK. The reaction incubates for about 120 min. Detection reagents are added to quench the reaction. These agents stop the reaction by diluting out the enzyme and chelating the metals due to the presence of EDTA. After addition, the assay is incubated overnight to allow the detection reagents to equilibrate.
The final concentration of PLK is about 1 μM. […] Buffer conditions are as follows: 60 mM HEPES pH 7.5, 25 mM NaCl, 10 mM MgCl, 2 mM DTT, 0.05% BSA.
(§1) The assay is quenched and stopped with 160 μL of detection reagent. Detection reagents are as follows: Buffer made of 50 mM Tris, pH 7.5, 100 mM NaCl, 3 mM EDTA, 0.05% BSA, 0.1% Tween20. Added to this buffer prior to reading is Steptavidin allophycocyanin (SA-APC) at a final conc in the assay of 0.0005 mg/mL, and europilated anti-phosphoPLK Ab (Eu-anti-PLK) at a final conc of 0.02 nM.
The assay plate is read in either a Discovery or a RubyStar. The eu-anti-PLK is excited at 320 nm and emits at 615 nm to excite the SA-APC which in turn emits at 655 nm.

AuroraB = target: T2, AuroraB (Homo sapiens, UniProt Q96GD4); assay: AuroraB Homogeneous Time Resolved Fluorescent (HTRF) kinase assay; assay type: biochemical
T2 construct: 20 μL of AuroraB FL His; His
T2 sequence (Q96GD4 whole entry): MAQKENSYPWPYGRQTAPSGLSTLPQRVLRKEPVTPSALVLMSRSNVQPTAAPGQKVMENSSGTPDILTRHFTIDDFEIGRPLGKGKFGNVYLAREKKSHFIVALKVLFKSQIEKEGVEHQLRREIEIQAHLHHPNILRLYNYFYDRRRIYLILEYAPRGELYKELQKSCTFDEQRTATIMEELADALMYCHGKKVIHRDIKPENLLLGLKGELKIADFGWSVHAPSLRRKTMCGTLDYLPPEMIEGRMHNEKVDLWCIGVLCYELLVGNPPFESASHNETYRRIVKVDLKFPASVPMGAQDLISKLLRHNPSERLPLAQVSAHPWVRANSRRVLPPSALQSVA
Method: AuroraB-Homogeneous Time Resolved Fluorescent (HTRF) Kinase Assay:
The AuroraB HTRF assay begins with AuroraB in the presence of ATP phosphorylating the biotinylated peptide Histone H3. The reaction incubates for about 90 min. the reaction is quentched by addition of detection reagents, which stop the reaction by diluting out the enzyme and chelating the metals due to the presence of EDTA. After addition, the assay is incubated for about 60 min to allow detection reagents to equilibrate.
The AuroraB HTRF assay comprises 1 μL of compound in 100% DMSO, 20 μL of ATP and biotinylated Histone H3, and 20 μL of AuroraB FL His for a final volume of 41 μL. The final concentration of Histone H3 is 0.1 μM. The final concentration of ATP is 23 μM (Km(app)=23 μM+/−2.6) and the final concentration of AuroraB is 400 pM. Buffer conditions are as follows: 50 mM HEPES pH 7.5, 5 mM NaCl, 0.5 mM MgCl, 0.5 mM MnCl, 2 mM DTT, 0.05% BSA.
as §1, with “μl,” for “μL”, “0.001” for “0.0005”, “anti-phosphoHistoneH3” for “anti-phosphoPLK”, “(Eu-anti-His H3)” for “(Eu-anti-PLK)”, “0.064” for “0.02”
The assay plate is read in either a Discovery or a RubyStar. The eu-anti-HisH3 is excited at 320 nm and emits at 615 nm to excite the SA-APC which in turn emits at 655 nm. The ratio of SA-APC at 655 nm (excited due to close proximity to the Eu-anti-H HisH3 because of phosphorylation of the peptide) to free Eu-anti-HisH3 at 615 nm will give substrate phosphorylation.

[2] = ATP about 1 μM, biotinylated peptide PLK, read-out: average activity in the Aurora kinase A HTRF assay
[3] = ATP 23 μM, biotinylated peptide Histone H3, read-out: average activity in the Aurora kinase B HTRF assay
[4] = class symbols, read-out: AurA/TPX2_IC50_IP (Avg)
[5] = class symbols, read-out: AurB_IC50_IP (Avg)
[6] = numeric values, unit inferred, read-out: AurA/TPX2_IC50_IP (Avg)
[7] = numeric values, unit inferred, read-out: AurB_IC50_IP (Avg)

Row | SMILES | IC50 (AuroraA-TPX2; [4]) | IC50 (AuroraB; [5]) | other results
1 | CNc1nccc(-c2cccnc2Oc2ccc(Nc3nnc(-c4ccccc4)c4c3C3CCC4CC3)cc2)n1 [Example 107, N-(4-((3-(2-(methylamino)-4-pyrimidinyl)-2-pyridinyl)oxy)phenyl)-6-phenyl-4,5-diazatricyclo [6.2.2.0~2,7~]dodeca-2,4,6-trien-3-amine] |  |  | EC50 [1]: < 1000 nM
2 | CNc1cc(-c2cnccc2Oc2ccc(Nc3nnc(-c4ccccc4)c4ccccc34)cc2)ccn1 [Example 242, N-(4-(3-(2-(methylamino)pyridin-4-yl)pyridin-4-yloxy)phenyl)-4-phenylphthalazin-1-amine] |  |  | IC50 (AuroraA-TPX2; [2]): ≤ 100 nM; IC50 (AuroraB; [3]): ≤ 100 nM
3 | c1ccc(-c2nnc(Nc3ccc(Oc4ncncc4-c4ccncc4)cc3)c3ccccc23)cc1 [Example 243, 4-phenyl-N-(4-(5-(pyridin-4-yl)pyrimidin-4-yloxy)phenyl)phthalazin-1-amine] |  |  | IC50 (AuroraA-TPX2; [2]): ≤ 100 nM; IC50 (AuroraB; [3]): ≤ 100 nM
4 | CNc1nccc(-c2cccnc2Oc2ccc(Oc3nnc(-c4ccccc4)c4ccccc34)cc2)n1 [Example 244, N-methyl-4-(2-(4-(4-phenylphthalazin-1-yloxy)phenoxy)pyridin-3-yl)pyrimidin-2-amine] |  |  | IC50 (AuroraA-TPX2; [2]): ≤ 100 nM; IC50 (AuroraB; [3]): ≤ 100 nM
5 | CC(C)c1nnc(Nc2ccc(Oc3ncccc3-c3ccnc(N)n3)nc2)c2ccccc12 [compound 269] | 100 to 500 nM |  | 
6 | Cc1cccc(-c2nnc(Nc3ccc(Oc4ncccc4-c4ccnc(N)n4)cc3)c3ccccc23)n1 [compound 271] |  |  | IC50 (AuroraA-TPX2; numeric values, read-out: AurA/TPX2_IC50_IP (Avg)): 24.3 nM; IC50 (AuroraB; numeric values, read-out: AurB_IC50_IP (Avg)): 1 nM
7 | COCc1cccc(-c2nnc(Nc3ccc(Oc4ncccc4-c4ccnc(N)n4)cc3)c3ccccc23)n1 [compound 298] | ≤ 100 nM | ≤ 100 nM | 
8 | Nc1nccc(-c2cccnc2Oc2ccc(Nc3nnc(-c4ccccc4)c4ccccc34)cn2)n1 [compound 415] | ≤ 100 nM | ≤ 100 nM | 
9 | Cc1csc(-c2nnc(Nc3ccc(Oc4ncccc4-c4ccnc(N)c4)cc3)c3ccccc23)c1 [compound 416] |  |  | IC50 (AuroraA-TPX2; [6]): 54.1 nM; IC50 (AuroraB; [7]): 14.5 nM
10 | Cc1csc(-c2cc(C)c(Nc3ccc(Oc4ncccc4-c4ccnc(N)c4)cc3)nn2)c1 [compound 419] | ≤ 100 nM | ≤ 100 nM | 
11 | CCc1cc(-c2ccccc2)nnc1Nc1ccc(Oc2ncccc2-c2ccnc(N)c2)cc1 [compound 420] |  |  | IC50 (AuroraA-TPX2; [6]): 56.8 nM; IC50 (AuroraB; [7]): 7.1 nM
12 | Nc1cc(-c2cccnc2Oc2ccc(Nc3nnc(-c4ccccc4)c4ccccc34)cn2)ccn1 [compound 431] | ≤ 100 nM | ≤ 100 nM | 
13 | O=c1cc(-c2cccnc2Oc2ccc(Nc3nnc(-c4ccccc4)c4ccccc34)cc2)cc[nH]1 [compound 432] |  | 500 to 2500 nM | 
14 | Cc1csc(-c2cc(C)c(Nc3ccc(Oc4ncccc4-c4ccnc(N)c4)cc3)nn2)n1 [compound 434] |  |  | IC50 (AuroraA-TPX2; [6]): 98.6 nM; IC50 (AuroraB; [7]): 9.5 nM
15 | N#Cc1cccc(-c2ccncc2)c1Oc1ccc(Nc2nnc(-c3ccccc3)c3ccccc23)cc1 [compound 436] | 100 to 500 nM | ≤ 100 nM | 
16 | COc1ccccc1-c1nnc(Nc2ccc(Oc3ncccc3-c3ccnc(N)n3)cc2)c2ccccc12 [compound 437] | ≤ 100 nM | ≤ 100 nM | 
17 | COc1ccccc1-c1nnc(Nc2ccc(Oc3ncccc3-c3ccnc(N)n3)nc2)c2ccccc12 [compound 440] | ≤ 100 nM | ≤ 100 nM | 
18 | COc1cccc(-c2nnc(Nc3ccc(Oc4ncccc4-c4ccnc(N)c4)cc3)c3ccccc23)c1 [compound 441] | 100 to 500 nM | 100 to 500 nM | 
19 | COc1ccccc1-c1nnc(Nc2ccc(Oc3ncccc3-c3ccnc(N)c3)cc2)c2ccccc12 [compound 442] |  |  | IC50 (AuroraA-TPX2; [6]): 375 nM; IC50 (AuroraB; [7]): 33 nM
20 | CCCc1cc(-c2ccccc2)nnc1Nc1ccc(Oc2ncccc2-c2ccnc(N)n2)cc1 [compound 445] |  |  | IC50 (AuroraA-TPX2; [6]): 23.5 nM; IC50 (AuroraB; [7]): 3.1 nM
21 | Oc1cccc(-c2ccncc2)c1Oc1ccc(Nc2nnc(-c3ccccc3)c3ccccc23)cc1 [compound 447] |  | 500 to 2500 nM | 
22 | COc1cccc(-c2ccncc2)c1Oc1ccc(Nc2nnc(-c3ccccc3)c3ccccc23)cc1 [compound 448] |  |  | IC50 (AuroraA-TPX2; [6]): 110 nM; IC50 (AuroraB; [7]): 9.6 nM

Continued, in another order:

Row | IC50 (AuroraA-TPX2; [4]) | IC50 (AuroraB; [5]) | SMILES | other results
23 | ≤ 100 nM | ≤ 100 nM | Cc1cc(-c2ccccc2)nnc1Nc1ccc(Oc2ncccc2-c2ccnc(N)c2)cc1 [compound 418] | 
24 | ≤ 100 nM | ≤ 100 nM | O=C(O)CCCNc1nccc(-c2cccnc2Oc2ccc(Nc3nnc(-c4ccccc4)c4ccccc34)cc2)n1 [compound 427] | 
25 | ≤ 100 nM | ≤ 100 nM | Cc1csc(-c2cc(C)c(Nc3ccc(Oc4ncccc4-c4ccncc4)cc3)nn2)c1 [compound 428] | 
26 | ≤ 100 nM | ≤ 100 nM | Cc1cc(-c2ccccc2)nnc1Nc1ccc(Oc2ncccc2-c2ccnc(NCCCO)n2)cc1 [compound 429] | 
27 | ≤ 100 nM | ≤ 100 nM | Cc1cc(-c2ccccc2)nnc1Nc1ccc(Oc2ncccc2-c2ccnc(NCCCC(=O)O)n2)cc1 [compound 430] | 
28 | ≤ 100 nM | ≤ 100 nM | CCc1cc(-c2ccccc2)nnc1Nc1ccc(Oc2ncccc2-c2ccnc(N)n2)cc1 [compound 435] | 
29 | ≤ 100 nM | ≤ 100 nM | COc1cccc(-c2nnc(Nc3ccc(Oc4ncccc4-c4ccnc(N)n4)cc3)c3ccccc23)c1 [compound 438] | 
30 | ≤ 100 nM | ≤ 100 nM | CCc1cc(-c2ccccc2)nnc1Nc1ccc(Oc2ncccc2-c2ccnc(N)n2)nc1 [compound 439] | 
31 | ≤ 100 nM | ≤ 100 nM | COc1cccc(-c2cc(C)c(Nc3ccc(Oc4ncccc4-c4ccnc(N)n4)cc3)nn2)c1 [compound 443] | 
32 | 100 to 500 nM | ≤ 100 nM | CCc1cc(-c2ccccc2)nnc1Nc1ccc(Oc2ncccc2-c2ccnc(N)c2)nc1 [compound 444] | 
33 | ≤ 100 nM | ≤ 100 nM | COCc1cc(-c2ccccc2)nnc1Nc1ccc(Oc2ncccc2-c2ccnc(N)n2)cc1 [compound 446] | 
